We go through one molecule from patent US9956232B2, “Dialkyl-phosphinoyl-alkane (Dapa) compounds and compositions for treatment of lower gastrointestinal tract disorders” (priority 2016, dated 2018).

Several values for one entry are separate records, joined by “and”; a condition that tells them apart may be missing. Equal values may be shown once.

The test system of one data set is isolated mouse vagus. Put plainly: Capsaicin-induced depolarization of the isolated vagus nerve. The conditions noted are these: data also shown in U.S. Ser. No. 14/544,042. An excerpt:
An isolated vagus nerve model was developed at Imperial College, London, U.K. [Birrell et al. TrpA1 agonists evoke coughing in guinea pig and human volunteers. Amer. J. respiratory and critical care medicine 180, 1042-7, 2009; Patel, H. J. et al. Inhibition of guinea-pig and human sensory nerve activity and the cough reflex in guinea-pigs by cannabinoid (CB2) receptor activation. Brit. J. Pharmacol. 140, 261-8, 2003]. In this in vitro assay, segments of the mouse vagus nerve are placed on a platform and the electrical activity is recorded after topical application of capsaicin. Capsaicin is a known irritant that elicits pain when it is applied to the skin and it will depolarize the isolated vagus. […] The similar effect of DAPA-2-5 in this test system was published in U.S. Ser. No. 14/55,042. Briefly, segments of vagus nerve, caudal to the nodose ganglion, were removed from mice with fine forceps and segments placed in oxygenated Krebs solution and bubbled with 95% O2/5% CO2. The desheathed nerve trunk was mounted in a ‘grease-gap’ recording chamber and constantly superfused with Krebs solution with a flow rate of approximately 2 mL/min, and the electrical activity of the nerve monitored with electrodes. The temperature of the perfusate was kept constant at 37° C. by a water bath. Nerve depolarizations were induced by superfusion of the nerve with capsaicin (1 μM). After two reproducible depolarization responses to capsaicin, DIPA-1-7 was applied at 1 mg/mL for 10 minutes in the perfusate followed by capsaicin.

The subject of data set [1] is heat-induced edema in the anesthetized rat paw. Kind of data set: Heat-induced edema in the anesthetized rat paw. The class given is in vivo. The conditions noted are these: 20 mg/mL, 0.3 mL per paw, 30 min before 58° C. water 1 min; relative to contralateral paw. The text has this: Inflammation is defined as the reaction of vascularized living tissue to local injury [Cotran, R S. 1989. Inflammation and repair. In Robbins: Pathologic Basis of Disease, ed. S. L. Robbins, R. S. Cotran, V. Kumar, 2:39-86. Philadelphia: Saunders. 4th ed.]. The characteristic signs of inflammation are redness, swelling, heat, and pain (and loss of function). The anti-inflammatory properties of the DAPA compounds were studied in a model of heat-induced vascular leakage [Wei et al. Method of inhibiting inflammatory response. U.S. Pat. No. 4,801,612; Wei et al., Anti-inflammatory peptide agonists. Annual Review Pharmacol Toxicol. 33:9-108, 1993]. When the paws of pentobarbital-anesthetized rats (200 to 300 g body weight) are immersed in 58° C. water for 1 min, the normal paw volume of about 1.8 mL was increased by ˜88% within 30 min, the swelling being due to an increase in water content of the paw.
Test compounds were dissolved in 20% water-80% R-1,2-propanediol at 20 mg/mL. The solutions were applied to the paw skin of pentobarbital-anesthetized rats (200 to 300 g body weight) at 0.3 mL per paw, using a syringe attached to a blunt 21 gauge needle covered at its tip with a piece of polyethylene 60 tubing. After distributing the solution over the paw, the paw was tightly enclosed in a plastic finger cut from a disposable glove. The contralateral paw [control] received only the vehicle. Thirty min after application, both paws were immersed in 58° C. water for 1 min. Thirty min after immersion, both paws were cut at ankle joint with scissors and weighed.
This degree of inhibition is significant for tissue protection as the injury stimulus is of supra-maximal intensity. The DAPA-2-5 effect was apparent to the untrained observer.

A further data set relates to Strains TA 98 and TA100. Put plainly: Ames test. The class given is cell-based. The conditions noted are these: TA 98 and TA100, with and without liver activation. Here is the method:
Preliminary toxicological studies were conducted on DAPA-2-5 and DAPA-2-7.
On the technique in general: In the Ames test, an excess of revertant colonies over the control signals mutagenicity.

The nature of data set [2]: Repeated-dose toxicity in male rats (organ weights, histology). It is filed as in vivo, rat.
Data set [3] in a line: Tablet characterisation (hardness, friability, disintegration, HPLC recovery). The class given is physicochemical. Conditions: prototype tablets disintegrated in water. The procedure:
Dilution Approach: DAPA-2-5 liquid were loaded onto excipients (batch size: 12-24 g) in ˜12 experiments. The API and the selected excipients were mixed geometrically using a stainless steel spatula, and the mixture passed through sieve #20. The sieved blend was lubricated using magnesium stearate (previously sieved through mesh #40), and evaluated for appearance and flow property (through funnel). Based on the flow nature, selected blends were compressed in to tablets using Ø7.2 mm (for 120 mg tablets) or Ø9.5 mm (for higher than 120 mg tablet) standard concave round tooling on an Acura rotary press. Tablets were evaluated for thickness, hardness, friability, and disintegration test in 10 mL of purified water at room temperature. The appearance of powder blends and tablets were photographed.
The formed tablet was evaluated by several parameters. The dissolution rate is the time for the tablet to dissolve in a fixed volume of water [e.g. 10 mL] and, in the case of the ODT, the disintegration time should be less than 30 sec. Tablet hardness measures the structural integrity of a tablet “under conditions of storage, transportation, and handling before usage”. […]
A high pressure liquid chromatography [HPLC] method was developed for analysis of DAPA-2-5 in aqueous solution. […] Prototype tablets containing DAPA-2-5 were disintegrated and the content of DAPA-2-5 measured. […]

As to `CCCCCP(=O)(C(C)CC)C(C)CC` (stereo not shown) [DAPA-2-5, 1-Di(sec-butyl) phosphinoyl-pentane], the “inhibition of capsaicin-induced depolarization” value in the data set with isolated mouse vagus (TRPM8 knock-out mouse) is reported as “did not inhibit”. Further, the “percent inhibition of capsaicin-induced depolarization” value with isolated mouse vagus (isolated normal mouse vagus) was determined as 60%. Further, in data set [1], the “Inhibition of Heat Edema (±S.E.M.)” value was 12.9% and 12.9 ± 2.5 %. Moreover, the “mutagenicity in the Ames test” value with Strains TA 98 and TA100 is listed as “Neither of these compounds was mutagenic”. Also, the “organ weights and histology vs vehicle” value is “no statistical difference in organ weights or in histology” in data set [2] (20 mg/kg perioral by gavage for 7 days, rats) and “no statistical difference in organ weights or in histology” in data set [2] (via drinking water, 41 mg/kg body weight/day for 40 days, male rats). Further, the “DAPA-2-5 recovered from the aqueous phase” value in data set [3] was 86±2%.
